# Source: PMC11221864, “FRAX486, a PAK inhibitor, overcomes ABCB1-mediated multidrug resistance in breast cancer cells” (Brazilian Journal of Medical and Biological Research, 2024)
# Target: T1, ABCB1 (Homo sapiens, UniProt P08183)
# T1 construct: ABCB1 in membrane vesicles from High Five insect cells
# Test: vanadate-sensitive ATPase assay in membrane vesicles
# Format: biochemical
# T1 sequence (P08183 whole entry): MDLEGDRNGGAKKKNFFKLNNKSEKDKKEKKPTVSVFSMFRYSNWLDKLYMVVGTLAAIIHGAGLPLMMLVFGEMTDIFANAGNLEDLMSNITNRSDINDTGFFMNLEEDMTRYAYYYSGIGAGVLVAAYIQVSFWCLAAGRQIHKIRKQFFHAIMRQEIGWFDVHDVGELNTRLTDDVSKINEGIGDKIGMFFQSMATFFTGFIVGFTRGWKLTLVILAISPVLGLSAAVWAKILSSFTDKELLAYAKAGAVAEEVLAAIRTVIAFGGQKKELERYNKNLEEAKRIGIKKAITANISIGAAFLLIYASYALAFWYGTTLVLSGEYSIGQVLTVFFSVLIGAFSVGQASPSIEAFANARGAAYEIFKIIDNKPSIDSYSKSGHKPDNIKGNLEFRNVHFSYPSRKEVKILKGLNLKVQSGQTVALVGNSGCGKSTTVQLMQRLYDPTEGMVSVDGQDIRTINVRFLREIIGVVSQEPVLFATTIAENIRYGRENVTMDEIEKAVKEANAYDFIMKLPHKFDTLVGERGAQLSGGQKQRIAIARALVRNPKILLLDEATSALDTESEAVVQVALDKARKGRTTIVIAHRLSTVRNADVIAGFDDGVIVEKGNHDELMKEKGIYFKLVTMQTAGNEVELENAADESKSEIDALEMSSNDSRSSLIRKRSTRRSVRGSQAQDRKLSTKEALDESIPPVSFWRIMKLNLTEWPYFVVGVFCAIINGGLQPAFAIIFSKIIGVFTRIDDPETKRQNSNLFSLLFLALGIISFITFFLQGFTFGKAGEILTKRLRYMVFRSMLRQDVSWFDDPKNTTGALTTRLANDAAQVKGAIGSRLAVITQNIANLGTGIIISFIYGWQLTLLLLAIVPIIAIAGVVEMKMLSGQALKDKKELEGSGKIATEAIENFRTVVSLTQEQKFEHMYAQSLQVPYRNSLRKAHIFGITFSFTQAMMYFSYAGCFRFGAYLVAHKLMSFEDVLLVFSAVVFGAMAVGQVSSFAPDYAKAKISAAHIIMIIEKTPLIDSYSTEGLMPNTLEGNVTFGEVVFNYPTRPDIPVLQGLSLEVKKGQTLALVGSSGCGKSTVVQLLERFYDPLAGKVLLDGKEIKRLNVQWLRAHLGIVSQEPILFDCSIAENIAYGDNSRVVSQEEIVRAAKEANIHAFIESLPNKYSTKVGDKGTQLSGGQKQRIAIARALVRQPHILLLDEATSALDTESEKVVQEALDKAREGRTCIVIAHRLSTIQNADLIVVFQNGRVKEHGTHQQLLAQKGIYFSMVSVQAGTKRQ
compound,measurement,value
CCn1c(=O)c(-c2ccc(Cl)cc2Cl)cc2cnc(Nc3ccc(N4CCNCC4)c(F)c3)nc21 [FRAX486],IC50,20 nM
